Data on 19 molecules can be found in patent publication US20220356147A1, “COMPOUNDS AND METHODS FOR POTENTIATING COLISTIN ACTIVITY” (University of Notre Dame du Lac, priority 2019, published 2022).

Where two headings read alike, the source gives them in different places.

One experiment concerns AB4106 and KPB9. The experiment is described as follows: Initial screen for colistin resistance suppression, statements in words for both strains. Type of experiment: cell-based, A. baumannii and K. pneumoniae. To be noted: compound at 5 μM. The procedure:
(§1) Broth microdilution method for measurement of colistin potentiation: Bacteria were cultured for 4 to 6 hours in CAMHB and diluted to 1.04×10^6 CFU/mL for AB 4106 and 1.96×10^6 CFU/mL for KP B9 in fresh CAMHB. To aliquots (4 mL) was added compound from stock solutions in DMSO. One aliquot was not dosed to allow measurement of the colistin MIC in the absence of compound. A 1 mL aliquot of each sample was dosed with colistin, and from this 200 μL was dispensed into the first row of a 96-well microtiter plate in which all but the final row of subsequent wells was prefilled with 100 μL of the corresponding compound dosed bacterial suspension The final row was filled with media to act as a sterility control and blank. Row one wells were mixed 6-7 times, then, 100 μL was withdrawn and transferred to row two. Row two wells were mixed 6-7 times followed by a 100 μL transfer from row two to row three. This procedure was used to serially dilute the rest of the rows of the microtiter plate, excluding the last prefilled row, which was used to measure growth in the presence of compound alone. Plates were then sealed with GLAD
(§2) Press'n Seal and incubated under stationary conditions at 37° C. […] MIC values were determined as the minimum concentration required to achieve 90% growth inhibition compared to growth in untreated wells.

The next experiment concerns AB 4106. The experiment is described as follows: Broth microdilution, standalone MIC of compound. The format is cell-based, A. baumannii. The following applies: standalone, no colistin, read-out: MIC of compound alone, AB 4106. The method, then: Broth microdilution method for the determination of minimum inhibitory concentrations: Bacteria were cultured for 4 to 6 hours in CAMHB and subcultured to 1.04×10^6 CFU/mL for AB 4106 and 1.96×10^6 CFU/mL for KP B9 in fresh CAMHB. To aliquots (1 mL) was added compound from stock solutions in DMSO, such that the compound concentration equaled the highest concentration tested. Samples were then dispensed (200 μL) into the first row of a 96-well microtiter plate in which all but the final row of subsequent wells were prefilled with 100 μL of the untreated bacterial subculture. The final row was filled with media to act as a sterility control and blank. Row one wells were mixed 6-7 times, then, 100 μL was withdrawn and transferred to row two. Row two wells were mixed 6-7 times followed by a 100 μL transfer from row two to row three. This procedure was used to serially dilute the rest of the rows of the microtiter plate, excluding the last prefilled row, which was used to measure growth in the absence of compound. Plates were then sealed with GLAD Press'n Seal and incubated under stationary conditions at 37 C. […] MIC values were determined as the minimum concentration required to achieve 90% growth inhibition compared to growth in untreated wells.
For orientation: Broth dilution looks for growth in wells or tubes with falling amounts of substance.

Experiment [1] relates to A. baumannii 4106 (AB4106). The experiment is described as follows: Broth microdilution, colistin potentiation. Type of experiment: cell-based. The method, then: as §1, §2
The subject of the next experiment is AB 4112. The experiment is described as follows: Colistin potentiation, colistin-resistant isolate panel. The format is cell-based, A. baumannii.
In another experiment the test system is AB 3942. Described as above. The format is cell-based, A. baumannii.
For the next experiment, the system named is AB 17978 mcr-1. Described as above. Type of experiment: cell-based, A. baumannii.
For the next experiment, the system named is AB 3941. The experiment is described as above. The format is cell-based, A. baumannii.
For another experiment, the system named is AB 4119. The description is as above. Type of experiment: cell-based, A. baumannii.
[2] abbreviates: compound at 5 μM, colistin alone 2048 μg/mL.

What is called MIC is the least concentration at which growth counts as inhibited. For the molecule `O=C(Nc1cc(C(F)(F)F)cc(C(F)(F)F)c1)c1cccc(Cl)c1` [Compound 1], the “Colistin potentiation activity in words, compared to IMD-0354” value with AB4106 and KPB9 is recorded as “abrogated activity”. Further, in the experiment with AB 4106 (Acinetobacter baumannii, 16 h), the MIC is above 200 µM. For the same molecule, in experiment [1] (setting [2]), the “Colistin MIC fold reduction, AB 4106” value is listed as at most 16 fold.
In the case of `COc1ccc(Cl)cc1C(=O)Nc1cc(C(F)(F)F)cc(C(F)(F)F)c1` [Compound 2], in the experiment with AB4106 and KPB9, the “Colistin potentiation activity in words, compared to IMD-0354” value was “abrogated activity”. The minimum inhibitory concentration (MIC) in the experiment with AB 4106 (Acinetobacter baumannii, 16 h) was above 200 µM. Besides, the “Colistin MIC fold reduction, AB 4106” value in experiment [1] (setting [2]) is given as at most 16 fold.
On the same counts, the results for `O=C(Nc1cc(C(F)(F)F)cc(C(F)(F)F)c1)c1ccc(O)c(Cl)c1` [Compound 4, N-(3,5-bis(trifluoromethyl)phenyl)-3-chloro-4-hydroxybenzamide] are “abolished activity”, above 200 µM and at most 16 fold.
On to `O=C(Nc1cc(C(F)(F)F)cc(C(F)(F)F)c1)c1cccc(Cl)c1O` [Compound 5], for which the “Colistin potentiation activity in words, compared to IMD-0354” value in the experiment with AB4106 and KPB9 was “essentially equipotent activity to IMD-0354”. Further, the MIC in the experiment on AB 4106 (Acinetobacter baumannii, 16 h) is 100 µM. In addition, the figures for the “Colistin MIC fold reduction, AB 4106” value in experiment [1] (compound at 1 μM), in experiment [1] (compound at 3 μM) and in experiment [1] (setting [2]) were at most 16 fold, 256 fold and 512 fold, respectively.
As for `O=C(Nc1cc(C(F)(F)F)cc(C(F)(F)F)c1)c1ccccc1O` [Compound 6], the “Colistin potentiation activity in words, compared to IMD-0354” value in the experiment with AB4106 and KPB9 is recorded as “essentially equipotent activity to IMD-0354”. Besides, in the experiment with AB 4106 (Acinetobacter baumannii, 16 h), the minimal inhibitory concentration (MIC) was above 200 µM. The “Colistin MIC fold reduction, AB 4106” value in experiment [1] (compound at 3 μM) and in experiment [1] (setting [2]) was 512 fold throughout.
Take `O=C(Nc1cc(C(F)(F)F)cc(C(F)(F)F)c1)c1cccc(O)c1` [Compound 7, N-(3,5-bis(trifluoromethyl)phenyl)-3-hydroxybenzamide]: in the experiment with AB4106 and KPB9, the “Colistin potentiation activity in words, compared to IMD-0354” value is “devoid of activity”. The MIC in the experiment on AB 4106 (Acinetobacter baumannii, 16 h) was above 200 µM.
Take `O=C(Nc1cc(C(F)(F)F)cc(C(F)(F)F)c1)c1cc(F)ccc1O` [Compound 8]: the “Colistin potentiation activity in words, compared to IMD-0354” value with AB4106 and KPB9 is recorded as “essentially equipotent activity to IMD-0354”. In addition, the minimum inhibitory concentration (MIC) with AB 4106 (Acinetobacter baumannii, 16 h) was above 200 µM. Besides, the entries for the “Colistin MIC fold reduction, AB 4106” value in experiment [1] (compound at 1 μM), in experiment [1] (compound at 3 μM) and in experiment [1] (setting [2]) were 64 fold, 1024 fold and 1024 fold, respectively.
Take `O=C(Nc1cc(C(F)(F)F)cc(C(F)(F)F)c1)c1cc(Br)ccc1O` [Compound 9]: the “Colistin potentiation activity in words, compared to IMD-0354” value with AB4106 and KPB9 is reported as “essentially equipotent activity to IMD-0354”. Also, the MIC in the experiment with AB 4106 (Acinetobacter baumannii, 16 h) was above 100 µM. Also, the “Colistin MIC fold reduction, AB 4106” value in experiment [1] (compound at 1 μM) came to 128 fold; in experiment [1] (compound at 3 μM), 1024 fold; in experiment [1] (setting [2]), 1024 fold.
In the case of `O=C(Nc1cc(C(F)(F)F)cc(C(F)(F)F)c1)c1cc(-c2ccccc2)ccc1O` [Compound 13], the “Colistin MIC against AB 4112” value in the experiment with AB 4112 (compound at 5 μM) came to 8 µg/mL. The “Colistin MIC against AB 3942” value in the experiment with AB 3942 (compound at 5 μM) is 32 µg/mL. In the experiment with AB 17978 mcr-1 (compound at 5 μM), the “Colistin MIC against AB 17978 mcr-1” value was 4 µg/mL. In addition, the “Colistin MIC against AB 3941” value in the experiment with AB 3941 (compound at 5 μM) worked out at 16 µg/mL. The minimum inhibitory concentration (MIC) with AB 4106 was above 200 µM. Besides, in the experiment with AB 4119 (compound at 5 μM), the “Colistin MIC against AB 4119” value worked out at 2 µg/mL. Besides, the “Colistin MIC fold reduction, AB 4106” value in experiment [1] (compound at 1 μM) was determined as 32 fold; in experiment [1] (compound at 3 μM) it was 256 fold; in experiment [1] (setting [2]), 512 fold. For the same molecule, the “Colistin MIC against AB 4106” value was determined as 64 µg/mL in experiment [1] (in presence of compound at 1 μM), 8 µg/mL in experiment [1] (in presence of compound at 3 μM) and 4 µg/mL in experiment [1] (in presence of compound at 5 μM).
With `O=C(Nc1cc(C(F)(F)F)cc(C(F)(F)F)c1)c1cc(Cl)cc(Cl)c1O` [Compound 14], the “Colistin potentiation activity in words, compared to IMD-0354” value in the experiment on AB4106 and KPB9 was “four-fold less active than 15”. Further, the minimal inhibitory concentration (MIC) in the experiment with AB 4106 (Acinetobacter baumannii, 16 h) came to 100 µM. Further, the “Colistin MIC fold reduction, AB 4106” value is listed as 32 fold in experiment [1] (compound at 1 μM), 512 fold in experiment [1] (compound at 3 μM) and 512 fold in experiment [1] (setting [2]).
On to `O=C(Nc1cc(C(F)(F)F)cc(C(F)(F)F)c1)c1ccc(C(F)(F)F)cc1O` [Compound 15], for which the “Colistin potentiation activity in words, compared to IMD-0354” value with AB4106 and KPB9 is “equipotent activity to IMD-0354”. In addition, in the experiment on AB 4106 (Acinetobacter baumannii, 16 h), the MIC is above 200 µM. Besides, the “Colistin MIC fold reduction, AB 4106” value came out at 128 fold in experiment [1] (compound at 1 μM), 512 fold in experiment [1] (compound at 3 μM) and 2048 fold in experiment [1] (setting [2]).
As for `O=C(Nc1cc(C(F)(F)F)ccc1C(F)(F)F)c1cc(Cl)ccc1O` [Compound 17], in the experiment on AB4106 and KPB9, the “Colistin potentiation activity in words, compared to IMD-0354” value is “retained activity against KPB9 and AB4106 equivalent to IMD-0354”. Besides, the MIC in the experiment with AB 4106 (Acinetobacter baumannii, 16 h) was above 200 µM. Also, the “Colistin MIC fold reduction, AB 4106” value in experiment [1] (compound at 1 μM) is given as 128 fold; in experiment [1] (compound at 3 μM), 512 fold; in experiment [1] (setting [2]) it was 1024 fold.
For `O=C(Nc1ccc(C(F)(F)F)cc1C(F)(F)F)c1cc(Cl)ccc1O` [Compound 18], in the experiment with AB4106 and KPB9, the “Colistin potentiation activity in words, compared to IMD-0354” value was “retained activity against KPB9 and AB4106 equivalent to IMD-0354”. For the same molecule, the MIC in the experiment with AB 4106 (Acinetobacter baumannii, 16 h) was above 200 µM. Besides, the “Colistin MIC fold reduction, AB 4106” value was 256 fold in experiment [1] (compound at 1 μM), 1024 fold in experiment [1] (compound at 3 μM) and 1024 fold in experiment [1] (setting [2]).
As to `COc1cc(NC(=O)c2cc(Cl)ccc2O)cc(OC)c1` [Compound 19], in the experiment on AB4106 and KPB9, the “Colistin potentiation activity in words, compared to IMD-0354” value is recorded as “bereft of activity”. Also, in the experiment with AB 4106 (Acinetobacter baumannii, 16 h), the MIC was above 200 µM. In addition, in experiment [1] (setting [2]), the “Colistin MIC fold reduction, AB 4106” value is listed as at most 16 fold.
On the same counts, the results for `Nc1cc(NC(=O)c2cc(Cl)ccc2O)ccc1F` [Compound 36, N-(3-amino-4-fluorophenyl)-5-chloro-2-hydroxybenzamide] are “Neither compound displayed significant activity”, above 200 µM and at most 16 fold.
Taken in the same sequence, the figures for `COc1ccc(NC(=O)c2cc(Cl)ccc2O)cc1` [Compound 38] were “abolished activity”, above 200 µM and at most 16 fold.
On to `O=C(Nc1ccccc1Cl)c1cc(Cl)ccc1O` [Compound 39], for which the “Colistin potentiation activity in words, compared to IMD-0354” value with AB4106 and KPB9 is listed as “less active”. Also, the minimal inhibitory concentration (MIC) in the experiment with AB 4106 (Acinetobacter baumannii, 16 h) is above 200 µM. Also, in experiment [1] (setting [2]), the “Colistin MIC fold reduction, AB 4106” value is given as 256 fold.
Taken in the same sequence, the figures for `O=C(Nc1cc(C(F)(F)F)ccc1C(F)(F)F)c1cc(Cl)cc(Cl)c1O` [Compound 61, N-(2,5-bis(trifluoromethyl)phenyl)-3,5-dichloro-2-hydroxybenzamide] were “returned equipotent activity”, above 200 µM and at most 16 fold.
Regarding colistin [reference compound], the “MIC of colistin alone, AB 4112” value with AB 4112 (absence of adjuvant) stood at 2048 µg/mL. For the same molecule, the “MIC of colistin alone, AB 3942” value in the experiment with AB 3942 (absence of adjuvant) was above 2048 µg/mL. The “MIC of colistin alone, AB 17978 mcr-1” value in the experiment with AB 17978 mcr-1 (absence of adjuvant) was 64 µg/mL. The “MIC of colistin alone, AB 3941” value in the experiment with AB 3941 (absence of adjuvant) came to 1024 µg/mL. Also, the “MIC of colistin alone, AB 4119” value in the experiment on AB 4119 (absence of adjuvant) is 1024 µg/mL.
